For this assay, the system named is Saccharomyces cerevisiae (Ethanol Red). The following applies: yeast 2.4 g/L, glucose concentration at 10%. Here is the method:
Various concentrations of yeast were added to glucose based liquid media with and without NaHCO3 and the fermentation process monitored for glucose consumption and ethanol production.
The fermentation media consisted of 25 gm of glucose and 1 ml of urea (45%) in 250 ml of water. The pH of the system was adjusted to 4.5 with 1 M H2SO4. The temperature of incubation was about 32° C., and the tests were conducted for 72 hours. The tests compared fermentation systems with and without sodium bicarbonate (NaHCO3). NaHCO3 was added to final concentrations of 200 ppm or 500 ppm in the test vessels. […] In some vessels the pH was readjusted to 4.5. Yeasts (Saccharomyces cerevisiae (Ethanol Red) diluted 1 to 5 in water, were added to the various test vessels at 0.5, 2, 3, 4 and 5 ml. Yeasts at 3 ml in the vessel corresponds to 2.4 g/L. The fermentation media vessels were monitored for glucose utilization and ethanol production via HPLC measurement at 2, 4, 6, 24, 48 and 72 hours.

Where two headings read alike, the source gives them in different places.

For `O=C([O-])O.[Na+]` [SBC, sodium bicarbonate], the “Ethanol (% after 48 hours)” value is reported as 4.8% (SBC 200 ppm) and 4.8% (SBC 500 ppm).
